Test [1] deals with T1, Sentrin-specific protease 6 (Homo sapiens, UniProt Q9GZR1).
T1 sequence (Q9GZR1 whole entry): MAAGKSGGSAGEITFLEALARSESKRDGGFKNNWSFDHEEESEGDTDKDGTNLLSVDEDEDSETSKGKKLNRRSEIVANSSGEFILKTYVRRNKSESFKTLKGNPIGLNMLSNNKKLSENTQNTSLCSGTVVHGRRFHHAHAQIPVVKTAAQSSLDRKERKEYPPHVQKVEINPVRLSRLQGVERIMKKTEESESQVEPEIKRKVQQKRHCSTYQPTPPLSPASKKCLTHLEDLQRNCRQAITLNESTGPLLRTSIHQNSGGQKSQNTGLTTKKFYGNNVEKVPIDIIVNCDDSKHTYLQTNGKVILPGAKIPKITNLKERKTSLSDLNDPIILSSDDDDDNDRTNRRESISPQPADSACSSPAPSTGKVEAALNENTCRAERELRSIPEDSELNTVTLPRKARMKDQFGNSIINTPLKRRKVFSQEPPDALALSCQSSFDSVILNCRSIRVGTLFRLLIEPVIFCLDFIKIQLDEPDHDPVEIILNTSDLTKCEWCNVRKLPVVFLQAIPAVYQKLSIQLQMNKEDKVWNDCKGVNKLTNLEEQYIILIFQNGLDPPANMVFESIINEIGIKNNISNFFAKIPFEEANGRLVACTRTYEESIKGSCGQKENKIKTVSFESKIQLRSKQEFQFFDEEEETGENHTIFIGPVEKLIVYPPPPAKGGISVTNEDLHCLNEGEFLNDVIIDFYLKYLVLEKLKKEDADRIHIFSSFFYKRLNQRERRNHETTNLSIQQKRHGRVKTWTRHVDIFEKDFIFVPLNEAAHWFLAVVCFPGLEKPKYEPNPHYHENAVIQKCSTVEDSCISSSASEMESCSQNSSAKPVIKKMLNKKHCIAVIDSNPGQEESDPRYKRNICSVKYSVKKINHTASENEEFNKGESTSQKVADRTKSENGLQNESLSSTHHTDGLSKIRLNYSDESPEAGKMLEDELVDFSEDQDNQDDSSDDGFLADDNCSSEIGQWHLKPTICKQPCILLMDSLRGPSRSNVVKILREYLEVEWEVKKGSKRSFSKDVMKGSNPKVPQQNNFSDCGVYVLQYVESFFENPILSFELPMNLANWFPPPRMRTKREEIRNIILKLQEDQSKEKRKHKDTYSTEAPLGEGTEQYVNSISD
The class given is functional.

A short description of test [2]: inhibitors of firefly luciferase expression or activity, dose response, H4 neuroglioma cells, luminescence (AID 1990). The class given is functional, cell-based.
The target in test [3] is T2, Hexokinase HKDC1 (Homo sapiens, UniProt Q2TB90).
T2 sequence (Q2TB90 whole entry): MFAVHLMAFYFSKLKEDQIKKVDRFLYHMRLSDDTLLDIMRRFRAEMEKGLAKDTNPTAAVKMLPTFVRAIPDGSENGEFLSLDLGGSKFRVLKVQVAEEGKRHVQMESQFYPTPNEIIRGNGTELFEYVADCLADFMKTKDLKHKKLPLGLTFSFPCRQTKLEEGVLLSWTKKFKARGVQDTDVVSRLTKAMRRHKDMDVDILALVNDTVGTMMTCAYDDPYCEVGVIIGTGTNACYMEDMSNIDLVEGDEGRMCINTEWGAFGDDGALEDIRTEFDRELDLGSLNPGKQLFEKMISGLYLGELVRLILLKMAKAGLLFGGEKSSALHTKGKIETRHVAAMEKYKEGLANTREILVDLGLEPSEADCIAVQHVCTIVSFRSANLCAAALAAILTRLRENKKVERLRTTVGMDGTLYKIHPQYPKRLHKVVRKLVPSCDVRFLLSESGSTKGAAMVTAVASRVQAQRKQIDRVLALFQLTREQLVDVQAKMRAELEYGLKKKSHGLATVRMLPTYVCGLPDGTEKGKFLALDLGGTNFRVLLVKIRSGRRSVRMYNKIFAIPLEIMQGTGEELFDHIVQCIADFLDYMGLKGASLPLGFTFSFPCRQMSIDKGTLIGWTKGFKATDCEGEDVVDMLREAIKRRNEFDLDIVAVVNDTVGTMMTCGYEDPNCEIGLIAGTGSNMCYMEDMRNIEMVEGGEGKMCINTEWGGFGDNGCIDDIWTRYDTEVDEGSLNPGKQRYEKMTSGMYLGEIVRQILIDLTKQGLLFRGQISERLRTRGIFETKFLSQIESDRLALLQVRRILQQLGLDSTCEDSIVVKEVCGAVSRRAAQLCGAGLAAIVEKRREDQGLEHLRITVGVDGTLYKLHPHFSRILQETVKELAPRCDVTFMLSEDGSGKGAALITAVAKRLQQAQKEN
The test is described as follows: HKDC1 hexokinase inhibitors, dose response, biochemical, W721R variant (AID 504729). The test is classed as functional.

Test [4] in a line: Luminescence Cell-Based Dose Response HTS to Identify Inhibitors of 5'UTR Stem-Loop Driven Prion Protein mRNA Translation in H4 Neuroglioblastoma Cells. [Related pubchem assays: 1827 (Project Summary), 1813 (Primary HTS)]. The class given is functional.
For test [5], the target named is T3, Replicative DNA helicase DnaB (Mycobacterium tuberculosis, UniProt P9WMR3).
T3 sequence (P9WMR3 whole entry): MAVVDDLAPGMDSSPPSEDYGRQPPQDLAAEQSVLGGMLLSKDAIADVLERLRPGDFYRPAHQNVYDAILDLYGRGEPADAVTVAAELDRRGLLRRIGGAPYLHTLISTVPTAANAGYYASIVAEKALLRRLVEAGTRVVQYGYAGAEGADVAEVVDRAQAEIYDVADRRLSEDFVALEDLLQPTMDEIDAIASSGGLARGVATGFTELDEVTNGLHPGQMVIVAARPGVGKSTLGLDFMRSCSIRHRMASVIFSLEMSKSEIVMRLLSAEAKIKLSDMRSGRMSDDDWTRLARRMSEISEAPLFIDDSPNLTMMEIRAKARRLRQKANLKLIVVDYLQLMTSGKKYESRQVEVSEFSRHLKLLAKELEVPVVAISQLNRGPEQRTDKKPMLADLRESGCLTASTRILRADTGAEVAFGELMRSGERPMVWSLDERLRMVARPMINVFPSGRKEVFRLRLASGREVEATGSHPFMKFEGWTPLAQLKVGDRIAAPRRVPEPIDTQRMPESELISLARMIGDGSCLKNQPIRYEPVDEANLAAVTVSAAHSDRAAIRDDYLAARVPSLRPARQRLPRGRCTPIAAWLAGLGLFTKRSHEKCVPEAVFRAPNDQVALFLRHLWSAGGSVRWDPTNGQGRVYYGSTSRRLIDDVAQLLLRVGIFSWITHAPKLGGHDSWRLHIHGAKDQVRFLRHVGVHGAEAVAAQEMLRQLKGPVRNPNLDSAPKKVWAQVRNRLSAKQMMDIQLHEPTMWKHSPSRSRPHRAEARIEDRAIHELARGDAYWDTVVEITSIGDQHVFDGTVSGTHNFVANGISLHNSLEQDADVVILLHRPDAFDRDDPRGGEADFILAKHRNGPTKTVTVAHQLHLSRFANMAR
In words: DnaB intein splicing inhibitors, dose response, biochemical, cell-free fluorescence (AID 449749). The test is classed as functional.

Among the data in ChEMBL document CHEMBL1201862, “PubChem BioAssay data set” (2004) are IC50, EC50 and AC50 values, retold here.

Activity calls are given as the source filed them.

For the molecule `O=C1N=C(NS(=O)(=O)Cc2ccccc2)S/C1=C1\C(=O)Nc2ccccc21`, the IC50 in test [1] was 15.7 µM (active).

On to `O=C1C=C(N2CCCCC2)c2ccccc2C1=O`, for which the EC50 in test [2] was > 120 µM (not active); in test [4], 8.27 µM (active). Further, in test [3], the IC50 is 1.34 µM (active).

For the molecule `Clc1ccc2nc(-c3ccc(Br)s3)cn2c1`, in test [1], the IC50 was 12.3 µM (active).

With `CC(=O)NC1C(=O)N(CCN2CCOCC2)c2ccc(F)cc21` (stereo unspecified), in test [5], the AC50 was 12.3 µM (active). Moreover, the IC50 in test [3] was 9.43 µM (active).

Regarding `O=C(CCc1ccccc1)NNc1cc(N2CCCCC2)nc(N2CCCCC2)n1`, the EC50 in test [2] and in test [4] was > 120 µM (not active) throughout.

Regarding `Oc1ccc(N=Nc2c(O)ccc3ccccc23)cc1`, the IC50 in test [1] was 13 µM (active).

With `O=C(O)C1Nc2c(O)cc(Cl)c([N+](=O)[O-])c2C2C=CCC12` (stereo unspecified), the AC50 in test [5] is 12.8 µM (active).

Broadly, the IC50 is the concentration at which inhibition is half-maximal. As usually defined, the EC50 is the midpoint of the concentration-response curve. In general, AC50 refers to the midpoint of the concentration-response curve, whichever way the signal moves.
